Earlier results in patent US20250339338A1, “BLOOD STORAGE CONTAINER CONTAINING AQUEOUS COMPOSITION FOR THE STORAGE OF RED BLOOD CELLS” (Hemerus Medical, LLC, priority 2013, published 2025).

Tested on: humans
Conditions: in vivo

Structure (SMILES): CCCCC(CC)COC(=O)c1ccccc1C(=O)OCC(CC)CCCC (stereo not shown) [DEHP, di-ethylhexyl phthalate]
- adverse health effects found in studies in humans: adverse health effects such as respiratory distress, choleostasis, and histological abnormalities of the liver
